Measured values taken from patent US20250099420A1, “SMALL MOLECULE MODULATORS OF GPR139 COMPLEX” (University of Florida Research Foundation, Incorporated, priority 2022, published 2025).

Columns and labels:
GPR139 [1] = target: T1, GPR139 (Homo sapiens, UniProt Q6DWJ6); assay: GPR139 Agonist titration / agonist counterscreen assay (calcium detection, HEK-GPR139 cells); format: cell-based; design: expressed in transfected cells; host or cells: HEK Aequorin cells, Maxcyte transient transfection; settings: agonist counterscreen of the antagonists; for EC50: scientific notation, molarity, read-out: GRP139 Agonist activity EC50
T1 sequence (Q6DWJ6 1-353): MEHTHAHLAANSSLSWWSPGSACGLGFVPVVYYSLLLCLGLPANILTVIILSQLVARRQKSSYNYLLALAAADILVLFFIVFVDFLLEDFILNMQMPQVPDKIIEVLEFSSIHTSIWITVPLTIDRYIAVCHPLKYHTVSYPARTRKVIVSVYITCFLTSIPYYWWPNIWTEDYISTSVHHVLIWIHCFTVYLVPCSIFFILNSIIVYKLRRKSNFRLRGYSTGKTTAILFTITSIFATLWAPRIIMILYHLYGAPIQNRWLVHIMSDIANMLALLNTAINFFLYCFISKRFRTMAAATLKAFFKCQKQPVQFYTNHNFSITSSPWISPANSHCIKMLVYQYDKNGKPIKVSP
Experimental: GPR activity was assessed using a calcium detection assay. […] Negative control samples were treated with DMSO. […] Intracellular calcium was measured using Calcium 5.

GPR139 [2] = target: T1, GPR139; assay: GPR139 Antagonist titration assay (calcium detection, HEK-GPR139 cells, vs EC80 of S-JNJ-63533054); settings: for GPR139 Antagonist Activity Averaged Max % Response (±St. Dev.): activity relative to known control; for GPR139 Antagonist Activity Lipophilic Efficiency (logD): based on logD; for GPR139 Antagonist Activity Lipophilic Efficiency (logP): based on logP; for GPR139 Antagonist Activity Hill Slope: fitted dose-response curve
parental HEK cells = assay: HEK parental Antagonist Counterscreen Assay (non-transfected cells, acetylcholine control); format: cell-based; settings: for EC50: Homo sapiens, HEK293, acetylcholine as control, scientific notation, molarity
GPR139 [3] = target: T1, GPR139; assay: [3H]JNJ-63533054 radioligand competition binding assay on membranes of HEK293T/17 cells; design: HA signal peptide (HASP) (N); expressed in transfected cells; host or cells: HEK293T/17 cells (membrane preparation); settings: for inhibition at 10 µM: 10 μM of the indicated compound, (10 μM) JNJ-63533054 as printed in title; for Ki: Ki=IC50/(1+C/Kd), membranes of HEK293T/17 cells expressing human GPR139, read-out: Ki ± SEM
Source text: Eighteen compounds were selected for additional study. The compounds were re-synthesized and tested in radioligand binding competition assays for their ability to displace [^3H]-labeled reference agonist JNJ-63533054 on GPR139. The GPR139 construct used (pCDNA3.1-HASP-HA-GPR139) contained an N-terminal HA signal peptide (HASP), followed by an HA tag and human GPR139 (NM_001002911.4). HEK293T/17 cells were maintained in Dulbecco's modified Eagle's medium with 10% (v/v) fetal bovine serum, nonessential amino acids, and 1 mM sodium pyruvate.
Competition binding assay: Radioligand binding assay used human GPR139 expressed in HEK293T/17 cells. HEK293T/17 cells were transfected pCDNA3.1-HASP-HA-GPR139. 48 h after, cells were detached from plates by pipetting with PBS, centrifuged at 500×g for 5 min, and then the fluid was aspirated away. The cell pellets were frozen with liquid nitrogen and stored at −80° C. Pellets were homogenized in TE buffer (50 mM Tris-HCl, pH 7.4, 5 mM EDTA) and centrifuged at 1000×g at 4° C. for 5 min. Supernatant was collected and recentrifuged at 30,000×g at 4° C. for 30 min. The pellet was rehomogenized in TE buffer and incubated for 60 minutes at room temperature with eight concentrations of [^3H]JNJ-63533054 (specific activity 24.7 Ci/mmol) ranging from 0.024 nM to 400 nM. The binding reaction was terminated by filtration through GF/C filter (Waterman) followed by washes with cold TE buffer. Filters were dried in a hood overnight followed by the addition of scintillation fluid. Bound radioactivity was counted on a Hidex 600 liquid scintillation counter. […] Nonspecific binding was determined with 10 μM JNJ-63533054. The Kd values of the radioligands and IC50 of the antagonist were calculated by Graphpad Prism. Ki values were calculated as Ki=IC50/(1+C/Kd), where C is concentration of the radioligand.
Various concentrations of selected ligands were then added in the presence of 10 nM [^3H]-JNJ-63533054 and their ability to displace [^3H]labeling on cellular membranes was assessed. FIGS. 3B and 3C present representative data obtained in these experiments. […] The results of these experiments are presented in the Table 3 and confirm selective binding the compounds to GPR139 thereby validating their interaction with the intended target.

| Compound | GRP139 Agonist activity Averaged Max % Response (±St. Dev.) (GPR139 [1]) | EC50 (GPR139 [1]) | EC50 (GPR139 [2]) | GPR139 Antagonist Activity Ligand Efficiency (GPR139 [2]) | GPR139 Antagonist Activity Averaged Max % Response (±St. Dev.) (GPR139 [2]) | GPR139 Antagonist Activity Lipophilic Efficiency (logD) (GPR139 [2]) | GPR139 Antagonist Activity Lipophilic Efficiency (logP) (GPR139 [2]) | GPR139 Antagonist Activity Hill Slope (GPR139 [2]) | HEK antagonist activity Averaged Max % Response (±St. Dev.) (parental HEK cells) | EC50 (parental HEK cells) | inhibition at 10 µM (GPR139 [3]) | Ki (GPR139 [3]) |
| --- | --- | --- | --- | --- | --- | --- | --- | --- | --- | --- | --- | --- |
| COc1ccc(-c2noc(CN3CCCN(c4ccc(F)cc4)CC3)n2)c(OC)c1OC [SR-01000169333] | 2.42 ± 7.61% | > 14.1 µM | 8.4 µM | 0.22 | 66.19 ± 8.60% | 1.64 | 1.37 | 1.11 | 9.54 ± 10.14% | > 14.1 µM | 64.5 ± 1.23% | 4.09 ± 0.09 µM |
| O=C(CCCC(=O)OCC(Cl)=C(Cl)Cl)Nc1ccccc1F [SR-01000195221] | 3.53 ± 6.53% | > 14.1 µM | 6.3 µM | 0.33 | 86.87 ± 1.46% | 1.71 | 1.71 | 0.88 | 28.17 ± 14.51% | > 14.1 µM | 77.7 ± 1.19% | 9.98 ± 0.23 µM |
| CCOC(=O)c1ccc2nc(C)c3c(c2c1)OC(C(C)(Cl)Br)C3 (stereo not drawn) [SR-01000220077] | 29.53 ± 3.67% | > 14.1 µM | 4.7 µM | 0.32 | 82.15 ± 3.63% | 1.23 | 1.20 | 0.74 | 5.29 ± 23.62% | > 14.1 µM | 77.8 ± 5% | 7.31 ± 0.16 µM |
| CCCOC(=O)c1ccc(NC(=O)CSc2ccccc2)cc1 [SR-01000244770] | 7.91 ± 4.93% | > 14.1 µM | 6.9 µM | 0.31 | 82.77 ± 1.38% | 1.07 | 1.07 | 1.77 | 15.65 ± 7.33% | > 14.1 µM | 56.3 ± 7.8% | 146 ± 0.003 µM |
| Cc1cc(I)ccc1NC(=O)CSc1cccs1 [SR-01000253143] | 4.38 ± 3.28% | > 14.1 µM | 4.3 µM | 0.42 | 63.84 ± 2.29% | 0.78 | 0.78 | 0.87 | 22.82 ± 1.84% | > 14.1 µM | 54.3 ± 5.98% | 0.13 ± 0.01 µM |
| Cc1cccc(NC(=O)CCC(=O)OCc2ccc(Br)cc2)c1 [SR-01000258561] | 45.23 ± 2.15% | > 14.1 µM | 2.3 µM | 0.34 | 102.3 ± 0.93% | 1.45 | 1.45 | 1.14 | 50.40 ± 13.43% | 13.8 µM | 35.6 ± 21.2% | 7.14 ± 0.16 µM |
| O=C(CS(=O)(=O)c1ccccc1)Nc1ccc(Oc2ccccc2)cc1 [SR-01000263867] | 4.67 ± 4.93% | > 14.1 µM | 2.1 µM | 0.31 | 84.30 ± 2.68% | 1.99 | 1.99 | 0.99 | 20.24 ± 7.73% | > 14.1 µM | 59.3 ± 7.51% | 4.91 ± 1.1 µM |
| CCOC(=O)c1c(C)nc2c(c1-c1ccc(F)cc1)C(=O)CC(c1ccc(Cl)cc1)C2 (stereo not drawn) [SR-01000419112] | 0.45 ± 5.31% | > 11.7 µM | 7.8 µM | 0.23 | 67.9 ± 10.41% | 0.44 | 0.44 | 1.28 | 18.74 ± 4.66% | > 11.7 µM | 102 ± 4.88% | 0.98 ± 0.02 µM |
| CCOC(=O)C(CC)Oc1ccc2c(C)c(Cc3ccccc3)c(=O)oc2c1 (stereo not drawn) [SR-01000421299] | 10.58 ± 2.83% | > 9.8 µM | 7.2 µM | 0.26 | 74.1 ± 13.55% | 0.17 | 0.17 | 1.98 | 7.76 ± 14.27% | > 9.8 µM | 65 ± 3.44% | 1.81 ± 0.04 µM |
